PMC10020958, “2-(4-Fluorophenyl)-1H-benzo[d]imidazole as a Promising Template for the Development of Metabolically Robust, α1β2γ2GABA-A Receptor-Positive Allosteric Modulators” (ACS Chemical Neuroscience, 2023)

Columns and labels:
[1] = target: GABA-A receptor (benzodiazepine site, α1/γ2 interface); assay: Radioligand binding assay for the GABA-A receptor ([3H]-flunitrazepam displacement, rat brain homogenate); conditions: pKi = -log Ki, n.a. = no affinity
[2] = target: T1, α1β2γ2-GABA-A receptors stably expressed in HEK293 cells (Homo sapiens, UniProt P14867+P18507); assay: Electrophysiological studies, automated patch clamp (QPatch16X), positive allosteric modulation of GABA-induced Cl- currents; format: cell-based; conditions: compound 1 μM co-applied with 10 μM GABA; GABA alone = 100%; mean ± SEM
T1 construct: expressed in transfected cells
T1 sequence (P14867 28-456): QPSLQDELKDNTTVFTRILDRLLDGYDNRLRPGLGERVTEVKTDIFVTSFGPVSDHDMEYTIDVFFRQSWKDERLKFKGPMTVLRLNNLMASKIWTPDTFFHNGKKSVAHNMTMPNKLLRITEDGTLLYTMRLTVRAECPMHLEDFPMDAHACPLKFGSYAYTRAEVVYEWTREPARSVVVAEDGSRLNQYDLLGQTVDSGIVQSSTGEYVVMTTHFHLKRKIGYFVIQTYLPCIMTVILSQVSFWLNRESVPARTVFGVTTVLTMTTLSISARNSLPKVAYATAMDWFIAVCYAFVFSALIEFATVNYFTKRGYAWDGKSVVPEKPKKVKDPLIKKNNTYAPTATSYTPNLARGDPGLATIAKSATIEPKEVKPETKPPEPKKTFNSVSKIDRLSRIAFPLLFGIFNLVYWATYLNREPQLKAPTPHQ
T1 sequence (P47870 25-512 partner limits assumed): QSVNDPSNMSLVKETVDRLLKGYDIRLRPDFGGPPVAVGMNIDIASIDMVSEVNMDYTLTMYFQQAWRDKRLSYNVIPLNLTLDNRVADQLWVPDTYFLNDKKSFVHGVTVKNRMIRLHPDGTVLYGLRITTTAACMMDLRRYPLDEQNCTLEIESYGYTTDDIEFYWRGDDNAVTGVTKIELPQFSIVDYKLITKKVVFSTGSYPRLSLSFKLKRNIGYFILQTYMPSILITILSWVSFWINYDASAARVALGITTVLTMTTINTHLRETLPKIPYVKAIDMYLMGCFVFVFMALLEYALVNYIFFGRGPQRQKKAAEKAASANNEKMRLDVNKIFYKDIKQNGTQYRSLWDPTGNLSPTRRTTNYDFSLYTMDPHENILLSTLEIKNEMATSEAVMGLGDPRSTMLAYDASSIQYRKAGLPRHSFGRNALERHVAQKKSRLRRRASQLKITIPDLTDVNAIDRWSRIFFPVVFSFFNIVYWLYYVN
T1 sequence (P18507 40-475): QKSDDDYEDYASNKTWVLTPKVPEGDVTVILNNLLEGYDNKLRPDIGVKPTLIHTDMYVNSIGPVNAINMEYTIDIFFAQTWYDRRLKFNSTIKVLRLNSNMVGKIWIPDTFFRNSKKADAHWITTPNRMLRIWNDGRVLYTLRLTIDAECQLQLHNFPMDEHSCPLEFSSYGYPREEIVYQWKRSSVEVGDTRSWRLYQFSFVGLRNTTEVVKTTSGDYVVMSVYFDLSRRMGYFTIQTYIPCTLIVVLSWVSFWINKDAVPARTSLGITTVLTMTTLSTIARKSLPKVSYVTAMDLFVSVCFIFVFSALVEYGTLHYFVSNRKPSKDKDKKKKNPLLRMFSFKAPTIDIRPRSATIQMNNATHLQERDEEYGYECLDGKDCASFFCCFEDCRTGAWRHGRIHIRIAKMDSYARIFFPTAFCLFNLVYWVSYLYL
Description: Given that ligands binding within the α1/γ2 interface act as PAMs, we selected the most promising 1H-benzo[d]imidazoles (9, 15, 16, 23, and 29) for electrophysiological studies using automated patch clamp recordings (QPatch16X, Sophion). We expected that 1H-benzo[d]imidazoles would potentiate GABA-induced Cl^– currents rather than inducing ion passage alone.
Electrophysiology studies were performed using the QPatch16X automatic patch clamp platform (Sophion Biosciences) and HEK293 cells, stably expressing the α1β2γ2 subunits of the human GABA-A receptor. Prior to the assay recordings, the cells were transferred from the culture flask through a TrypLE Express solution (LifeTechnologies) and resuspended in serum-free media. The cells were placed in the lidless microtube, located onboard the automated electrophysiology instrument. The cells were then automatically relocated to a built-in centrifuge, spun down, and washed in Ringer’s extracellular solution. The cells were transferred to the pipetting wells of a single-use 16-channel planar patch chip plate (QPlate 16X), and gigaseals were formed upon implementation of a combined suction/voltage protocol. Subsequent suction induced whole-cell configuration. The chloride currents passed via the GABA-A receptor were recorded for 7 s after single addition of a tested molecule. Through whole-cell recording, the holding potential was set to −90 mV. The assay was performed at room temperature. The extracellular solution was composed of the following ingredients: consisted of 2 mM […], 145 mM NaCl, 10 mM HEPES, CaCl2, 1 mM MgCl2, 10 mM glucose (pH 7.4, 300 mOsm), and intracellular solution contained 140 mM CsF, 1 mM EGTA, 5 mM CsOH, 10 mM HEPES, and 20 mMNaCl (pH 7.2, 320 mOsm). The screening assays were established in the instrument software by sequential application of 10 μM GABA (reference agonist AG1), 1 μM examined molecule compounds, and compounds co-administered with 10 μM GABA (T2); second addition of 10 μM GABA (AG2); 10 μM bicuculline (reference antagonist) along with 10 μM GABA (ATG). The intermission among the addition of particular molecules was 60 s. In a typical procedure, 5 μL of ligand was added to the cells, followed by 3 s of washout with an extracellular solution (two times […]). For the allosteric modulator/antagonist mode, the cells were preincubated with the tested compound alone for 50 s, followed by the addition of the reference agonist. The data obtained were processed using QPatch Assay Software (v5.0, Sophion Biosciences) and are represented as the mean of at least three independent experiments performed on separate cells. The validation criteria for a single test were current amplitude evoked by adding GABA greater than 500 pA and a change between cells’ response to GABA applications (AG1 and AG2) not greater than 25%. The relative compound efficiency was analyzed as the baseline-corrected ratio of maximal current amplitudes induced by the addition of tested compounds and reference agonist (T1-ATG/AG1-ATG or T2-ATG/AG1-ATG). The obtained raw current recordings were normalized and represented as % of the current amplitude induced by a reference agonist (GABA = 100%) using the QPatch Assay Software (v5.0, Sophion Biosciences).[24]

With `Cc1ccc2c(c1)nc(-c1ccc(F)cc1)n2CC(=O)N1CCCC1` [Compound 10, 2-(2-(4-Fluorophenyl)-5-methyl-1H-benzo[d]imidazole-1-yl)-1-(pyrrolidin-1-yl)ethan-1-one] the “pKi GABA-A” value [1] was “no affinity” and the melting point was 208.7 to 210.2 °C.

For `Cc1ccc2nc(-c3ccc(F)cc3)n(CC(=O)N3CCSCC3)c2c1` [Compound 11, 2-(2-(4-Fluorophenyl)-6-methyl-1H-benzo[d]imidazole-1-yl)-1-thiomorpholinoethan-1-one], the “pKi GABA-A” value [1] was 5.1 and the melting point was 205.3 to 207.1 °C.

For `Cc1ccc2c(c1)nc(-c1ccc(F)cc1)n2CC(=O)N1CCSCC1` [Compound 12, 2-(2-(4-Fluorophenyl)-5-methyl-1H-benzo[d]imidazole-1-yl)-1-thiomorpholinoethan-1-one], the “pKi GABA-A” value [1] was “no affinity” and the melting point was 199 to 200.9 °C.

With `Cc1ccc2nc(-c3ccc(F)cc3)n(CC(=O)Nc3ccccc3)c2c1` [Compound 13, 2-(2-(4-Fluorophenyl)-6-methyl-1H-benzo[d]imidazole-1-yl)-N-phenylacetamide] the “pKi GABA-A” value [1] was 5.53 and the melting point was 202.5 to 205 °C.

For `Cc1ccc2c(c1)nc(-c1ccc(F)cc1)n2CC(=O)Nc1ccccc1` [Compound 14, 2-(2-(4-Fluorophenyl)-5-methyl-1H-benzo[d]imidazole-1-yl)-N-phenylacetamide], the “pKi GABA-A” value [1] was “no affinity” and the melting point was 207.3 to 209.2 °C.

In the case of `CN(C)C(=O)Cn1c(-c2ccc(F)cc2)nc2ccccc21` [Compound 15, 2-(2-(4-Fluorophenyl)-1H-benzo[d]imidazole-1-yl)-N,N-dimethylacetamide], the “pKi GABA-A” value [1] is reported as 5.39, the “% of 10 μM GABA response” value [2] is reported as 105 ± 2,5% and the melting point is reported as 182.3 to 183.1 °C.

In the case of `O=C(Cn1c(-c2ccc(F)cc2)nc2ccccc21)N1CCCC1` [Compound 16, 2-(2-(4-Fluorophenyl)-1H-benzo[d]imidazole-1-yl)-1-(pyrrolidin-1-yl)ethan-1-one], the “pKi GABA-A” value [1] is reported as 5.53, the “% of 10 μM GABA response” value [2] is reported as 124 ± 5,2% and the melting point is reported as 212.9 to 214 °C.

In the case of `O=C(Cn1c(-c2ccc(F)cc2)nc2ccccc21)N1CCNCC1` [Compound 17, 2-(2-(4-Fluorophenyl)-1H-benzo[d]imidazole-1-yl)-1-(piperazin-1-yl)ethan-1-one], the “pKi GABA-A” value [1] is reported as “loss of activity” and the melting point is reported as 232.8 to 234.1 °C.

Molecule `CN1CCN(C(=O)Cn2c(-c3ccc(F)cc3)nc3ccccc32)CC1` [Compound 18, 2-(2-(4-Fluorophenyl)-1H-benzo[d]imidazole-1-yl)-1-(4-methylpiperazin-1-yl)ethan-1-one] has a melting point of 172.3 to 173.1 °C.

For `CC1CN(C(=O)Cn2c(-c3ccc(F)cc3)nc3ccccc32)CC(C)N1` (stereo not drawn) [Compound 19, 1-(3,5-Dimethylpiperazin-1-yl)-2-(2-(4-fluorophenyl)-1H-benzo[d]imidazole-1-yl)ethan-1-one], the melting point was 109.6 to 112.4 °C.

For `O=C(Cn1c(-c2ccc(F)cc2)nc2ccccc21)N1CCOCC1` [Compound 20, 2-(2-(4-Fluorophenyl)-1H-benzo[d]imidazole-1-yl)-1-morpholinoethan-1-one], the “pKi GABA-A” value [1] was “loss of activity”.

`O=C(Cn1c(-c2ccc(F)cc2)nc2ccccc21)N1CCSCC1` [Compound 21, 2-(2-(4-Fluorophenyl)-1H-benzo[d]imidazole-1-yl)-1-thiomorpholinoethan-1-one] gave a melting point of 205.3 to 205.8 °C.

For `O=C(Cn1c(-c2ccc(F)cc2)nc2ccccc21)Nc1ccccc1` [Compound 22, 2-(2-(4-Fluorophenyl)-1H-benzo[d]imidazole-1-yl)-N-phenylacetamide], the melting point was 236.7 to 239 °C.

In the case of `COc1ccccc1NC(=O)Cn1c(-c2ccc(F)cc2)nc2ccccc21` [Compound 24, 2-(2-(4-Fluorophenyl)-1H-benzo[d]imidazole-1-yl)-N-(2-methoxyphenyl)acetamide], the “pKi GABA-A” value [1] is reported as “loss of affinity” and the melting point is reported as 206.9 to 207.2 °C.

In the case of `COc1cccc(NC(=O)Cn2c(-c3ccc(F)cc3)nc3ccccc32)c1` [Compound 25, 2-(2-(4-Fluorophenyl)-1H-benzo[d]imidazole-1-yl)-N-(3-methoxyphenyl)acetamide], the “pKi GABA-A” value [1] is reported as 5.02 and the melting point is reported as 149.1 to 149.9 °C.

With `COc1ccc(NC(=O)Cn2c(-c3ccc(F)cc3)nc3ccccc32)cc1` [Compound 26, 2-(2-(4-Fluorophenyl)-1H-benzo[d]imidazole-1-yl)-N-(4-methoxyphenyl)acetamide] the “pKi GABA-A” value [1] was “loss of affinity” and the melting point was 255.1 to 255.7 °C.

Work on `O=C(Cn1c(-c2ccc(F)cc2)nc2ccccc21)Nc1ccccc1F` [Compound 27, N-(2-Fluorophenyl)-2-(2-(4-fluorophenyl)-1H-benzo[d]imidazole-1-yl)acetamide] yielded a melting point of 212.1 to 212.8 °C.

For `O=C(Cn1c(-c2ccc(F)cc2)nc2ccccc21)Nc1cccc(F)c1` [Compound 28, N-(3-Fluorophenyl)-2-(2-(4-fluorophenyl)-1H-benzo[d]imidazole-1-yl)acetamide], the melting point was 182.3 to 182.7 °C.

In the case of `O=C(Cn1c(-c2ccc(F)cc2)nc2ccccc21)Nc1ccc(F)cc1` [Compound 29, N-(4-Fluorophenyl)-2-(2-(4-fluorophenyl)-1H-benzo[d]imidazole-1-yl)acetamide], the “pKi GABA-A” value [1] is reported as 5.74, the “% of 10 μM GABA response” value [2] is reported as 112 ± 2,8% and the melting point is reported as 248 to 248.2 °C.

With `Cc1ccc(-c2nc3ccc(C)cn3c2CC(=O)N(C)C)cc1` [zolpidem, reference compound] the “pKi GABA-A” value [1] was 7.39 and the “% of 10 μM GABA response” value [2] was 212 ± 8,5%.
